Laboratory results: patent publication US6861528B2, “Carboxylated heterocyclic compounds and methods of synthesis” (R.T. Alamo Ventures I, LLC, priority 2002, dated 2005)

Tested on: Protein Serine/Threonine Kinase PKC, non-selective
Experiment: Protein Serine/Threonine Kinase PKC, non-selective enzyme assay ([32P]histone quantitated)
Type: biochemical
Conditions: 1% DMSO vehicle, rat brain enzyme, histone substrate
From the text: In this example, carboxyflosequinan was subjected to biochemical enzyme assays and radioligand binding assays to determine its percent inhibition of a variety of enzyme activities. Tamaoki and Nakano “Potent and specific inhibitors of protein kinase C of microbial origin” Biotechnology 8:732 (1990); Wilkinson et al. “Isoenzyme specificity of bisindolymaleimides, selective inhibitors of protein kinase C” Biochem. J. 294:335 (1993); Tamaki et al. “Staurosporine, a potent inhibitor of phospholipid/Ca++ dependent protein kinase” Biochem. Biophys. Res. Comm, 135:397 (1986). A brief summary of the conditions for each assay is provided below:
Protein Serine/Threonine Kinase PKC, non-selective: The enzyme was obtained from rat brain and the substrate was 370 μg/ml histone. The reaction was pre-incubated 5 min at 25° C., followed by a 15 min incubation at 25° C. in a buffer of 20 mM Tris-HCl, […] and 0.1 mM CaCl2.2HO, pH 7.4. [^32P]histone was quantitated.
FIG. 3 projects data for carboxyflosequinan in the assays described above. In these protein kinase assays, carboxyflosequinan was used in varying concentrations (in 1% DMSO as the vehicle). For the protein serine/threonine kinase (PKC, non-selective), carboxyflosequinan was tested at a concentrations of 100 μM, 300 μM, and 1000 μM. […] (See, FIG. 3).

inhibition of protein serine/threonine kinase (PKC, non-selective) (100 μM carboxyflosequinan): greater than 50%
inhibition of protein serine/threonine kinase (PKC, non-selective) (300 μM carboxyflosequinan): greater than 50%
inhibition of protein serine/threonine kinase (PKC, non-selective) (1000 μM carboxyflosequinan): greater than 50%
SMILES: Cn1cc([S+]([O-])CC(=O)O)c(=O)c2ccc(F)cc21 (stereo not drawn) [carboxyflosequinan, 3-carboxymethylsulfinyl-7-fluoro-1-methyl-4-quinolone]
